In patent publication US11814375B2, “Heterocyclic compounds” (Hoffmann-La Roche Inc., priority 2019, dated 2023):

What follows are compounds tested against T1, MAGL (Homo sapiens, UniProt Q99685) (assay: 2-AG assay: MAGL inhibitory activity by hydrolysis of 2-arachidonoylglycerol to arachidonic acid, followed by mass spectrometry). Conditions: 8 μM 2-arachidonoylglycerol, 15 min preincubation and 30 min reaction at RT, arachidonic acid/d8-arachidonic acid ratio by MS.
T1 sequence (Q99685 1-303): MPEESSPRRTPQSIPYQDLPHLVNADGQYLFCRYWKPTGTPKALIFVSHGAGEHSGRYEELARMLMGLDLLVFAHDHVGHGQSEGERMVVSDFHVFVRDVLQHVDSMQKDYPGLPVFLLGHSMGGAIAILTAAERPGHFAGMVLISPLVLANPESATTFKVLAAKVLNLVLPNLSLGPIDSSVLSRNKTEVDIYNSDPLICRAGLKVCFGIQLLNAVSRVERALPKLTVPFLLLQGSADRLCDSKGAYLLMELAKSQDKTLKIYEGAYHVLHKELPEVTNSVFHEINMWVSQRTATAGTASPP
Assay type: biochemical
Protocol: Compounds of formula (I) were profiled for MAGL inhibitory activity by determining the enzymatic activity by following the hydrolysis of the natural substrate 2-arachidonoylglycerol (2-AG) resulting in arachidonic acid, which can be followed by mass spectrometry. This assay is hereinafter abbreviated “2-AG assay”.
The 2-AG assay was carried out in 384 well assay plates (PP, Greiner Cat #784201) in a total volume of 20 μL. Compound dilutions were made in 100% DMSO (VWR Chemicals 23500.297) in a polypropylene plate in 3-fold dilution steps to give a final concentration range in the assay from 12.5 μM to […]. 0.25 μL compound dilutions (100% DMSO) were added to 9 μL MAGL in assay buffer (50 mM TRIS (GIBCO, 15567-027), 1 mM EDTA (Fluka, 03690-100 mL), 0.01% (v/v) Tween. After shaking, the plate was incubated for 15 min at RT. To start the reaction, 10 μL 2-arachidonoylglycerol in assay buffer was added. The final concentrations in the assay was […] and 8 μM 2-arachidonoylglyerol. After shaking and 30 min incubation at RT, the reaction was quenched by the addition of 40 μL of ACN containing 4 μM of d8-arachidonic acid. The amount of arachidonic acid was traced by an online SPE system (Agilent Rapidfire) coupled to a triple quadrupole mass spectrometer (Agilent 6460). A C18 SPE cartridge (G9205A) was used in an ACN/water liquid setup. The mass spectrometer was operated in negative electrospray mode following the mass transitions 303.1→259.1 for arachidonic acid and 311.1→267.0 for d8-arachidonic acid. The activity of the compounds was calculated based on the ratio of intensities [arachidonic acid/d8-arachidonic acid].

Row | Structure (SMILES) | IC50
1 | CC(C)(C)Cn1ccc(-c2ccc(C3CN(C(=O)N4CC[C@@H]5OCC(=O)N[C@@H]5C4)C3)cc2)n1 [Example 32b, (4aR,8aS)-6-[3-[4-[1-(2,2-Dimethylpropyl)pyrazol-3-yl]phenyl]azetidine-1-carbonyl]-4,4a,5,7,8,8a-hexahydropyrido[4,3-b][1,4]oxazin-3-one] | 6.5 nM
2 | O=C1CO[C@H]2CCN(C(=O)N3CC(c4ccc(-c5ccc(F)nc5)cc4)C3)C[C@H]2N1 [Example 43, (4aR,8aS)-6-[3-[4-(6-Fluoropyridin-3-yl)phenyl]azetidine-1-carbonyl]-4,4a,5,7,8,8a-hexahydropyrido[4,3-b][1,4]oxazin-3-one] | 19.3 nM
3 | Cc1csc(-c2ccc(C3CN(C(=O)N4CC[C@@H]5OCC(=O)N[C@@H]5C4)C3)cc2)n1 [Example 41, (4aR,8aS)-6-[3-[4-(4-Methyl-1,3-thiazol-2-yl)phenyl]azetidine-1-carbonyl]-4,4a,5,7,8,8a-hexahydropyrido[4,3-b][1,4]oxazin-3-one] | 24.6 nM
4 | O=C1CO[C@H]2CCN(C(=O)N3CC(c4ccc(Oc5cncc(F)c5)cc4)C3)C[C@H]2N1 [Example 8, (+)-(4aR,8aS)-6-[3-[4-[(5-Fluoro-3-pyridyl)oxy]phenyl]azetidine-1-carbonyl]-4,4a,5,7,8,8a-hexahydropyrido[4,3-b][1,4]oxazin-3-one] | 4.3 nM
5 | O=C1CO[C@H]2CCN(C(=O)N3CC(c4ccc(Oc5nccc(C6CC6)n5)cc4)C3)C[C@H]2N1 [Example 25, (+)-(4aR,8aS)-6-[3-[4-(4-Cyclopropylpyrimidin-2-yl)oxyphenyl]azetidine-1-carbonyl]-4,4a,5,7,8,8a-hexahydropyrido[4,3-b][1,4]oxazin-3-one] | 4.2 nM
6 | Cc1nc(C)c(-c2ccc(C3CN(C(=O)N4CC[C@@H]5OCC(=O)N[C@@H]5C4)C3)cc2)o1 [Example 34, (4aR,8aS)-6-[3-[4-(2,4-Dimethyloxazol-5-yl)phenyl]azetidine-1-carbonyl]-4,4a,5,7,8,8a-hexahydropyrido[4,3-b][1,4]oxazin-3-one] | 22.9 nM
7 | O=C1CO[C@H]2CCN(C(=O)N3CC(c4ccc(Oc5cccnn5)cc4)C3)C[C@H]2N1 [Example 6, (+)-(4aR,8aS)-6-[3-(4-Pyridazin-3-yloxyphenyl)azetidine-1-carbonyl]-4,4a,5,7,8,8a-hexahydropyrido[4,3-b][1,4]oxazin-3-one] | 133 nM
8 | O=C1CO[C@H]2CCN(C(=O)N3CC(c4ccc(Oc5ccnnc5Cl)cc4)C3)C[C@H]2N1 [Example 12, (+)-(4aR,8aS)-6-[3-[4-(3-Chloropyridazin-4-yl)oxyphenyl]azetidine-1-carbonyl]-4,4a,5,7,8,8a-hexahydropyrido[4,3-b][1,4]oxazin-3-one] | 23.5 nM
9 | O=C1CO[C@H]2CCN(C(=O)N3CC(O)(c4ccc(Oc5ccccc5)cn4)C3)C[C@H]2N1 [Example 56, (4aR,8aS)-6-[3-Hydroxy-3-(5-phenoxy-2-pyridyl)azetidine-1-carbonyl]-4,4a,5,7,8,8a-hexahydropyrido[4,3-b][1,4]oxazin-3-one] | 15.5 nM
10 | O=C1CO[C@H]2CCN(C(=O)N3CC(c4ccc(-c5ccn[nH]5)cc4)C3)C[C@H]2N1 [Example 31, (4aR,8aS)-6-[3-[4-(1H-Pyrazol-5-yl)phenyl]azetidine-1-carbonyl]-4,4a,5,7,8,8a-hexahydropyrido[4,3-b][1,4]oxazin-3-one] | 91.9 nM
11 | O=C1CO[C@H]2CCN(C(=O)N3CC(c4ccc(Oc5ccc(Cl)cc5)nc4)C3)C[C@H]2N1 [Example 50, (4aR,8aS)-6-(3-(6-(4-Chlorophenoxy)pyridin-3-yl)azetidine-1-carbonyl)hexahydro-2H-pyrido[4,3-b][1,4]oxazin-3(4H)-one] | 4.3 nM
12 | O=C1CO[C@H]2CCN(C(=O)N3CC(c4ccc(-c5ccnn5CCF)cc4)C3)C[C@H]2N1 [Example 39, (4aR,8aS)-6-[3-[4-[2-(2-Fluoroethyl)pyrazol-3-yl]phenyl]azetidine-1-carbonyl]-4,4a,5,7,8,8a-hexahydropyrido[4,3-b][1,4]oxazin-3-one] | 6.7 nM
13 | Cn1cc(-c2ccc(C3CN(C(=O)N4CC[C@@H]5OCC(=O)N[C@@H]5C4)C3)cc2)cn1 [Example 45, (4aR,8aS)-6-[3-[4-(1-Methylpyrazol-4-yl)phenyl]azetidine-1-carbonyl]-4,4a,5,7,8,8a-hexahydropyrido[4,3-b][1,4]oxazin-3-one] | 134 nM
14 | CS(=O)(=O)c1nccc(Oc2ccc(C3CN(C(=O)N4CC[C@@H]5OCC(=O)N[C@@H]5C4)C3)cc2)n1 [Example 29, (+)-(4aR,8aS)-6-[3-[4-(2-Methylsulfonylpyrimidin-4-yl)oxyphenyl]azetidine-1-carbonyl]-4,4a,5,7,8,8a-hexahydropyrido[4,3-b][1,4]oxazin-3-one] | 90.9 nM

Now those with a lower IC50, led by results:

Row | IC50 | Structure (SMILES)
15 | 2.3 nM | O=C1CO[C@H]2CCN(C(=O)N3CC(c4ccc(Oc5cccnc5)cc4)C3)C[C@H]2N1 [Example 10, (+)-(4aR,8aS)-6-[3-[4-(3-Pyridyloxy)phenyl]azetidine-1-carbonyl]-4,4a,5,7,8,8a-hexahydropyrido[4,3-b][1,4]oxazin-3-one]
16 | 0.2 nM | CC(C)(C)Cn1nccc1-c1ccc(C2CN(C(=O)N3CC[C@@H]4OCC(=O)N[C@@H]4C3)C2)cc1 [Example 32a, (4aR,8aS)-6-[3-[4-[2-(2,2-Dimethylpropyl)pyrazol-3-yl]phenyl]azetidine-1-carbonyl]-4,4a,5,7,8,8a-hexahydropyrido[4,3-b][1,4]oxazin-3-one]
17 | 0.06 nM | O=C1CO[C@H]2CCN(C(=O)N3CC(c4ccc(Oc5cccc(C(F)(F)F)c5)cc4)C3)C[C@H]2N1 [Example 22, (+)-(4aR,8aS)-6-[3-[4-[3-(Trifluoromethyl)phenoxy]phenyl]azetidine-1-carbonyl]-4,4a,5,7,8,8a-hexahydropyrido[4,3-b][1,4]oxazin-3-one]
18 | 0.2 nM | O=C1CO[C@H]2CCN(C(=O)N3CC(c4ccc(Oc5ccccc5)cc4)C3)C[C@H]2N1 [Example 1, (4aR,8aS)-6-(3-(4-Phenoxyphenyl)azetidine-1-carbonyl)hexahydro-2H-pyrido[4,3-b][1,4]oxazin-3(4H)-one]
19 | 0.9 nM | CC(C)(C)Cn1nncc1-c1ccc(C2CN(C(=O)N3CC[C@@H]4OCC(=O)N[C@@H]4C3)C2)cc1 [Example 36, (4aR, 8aS)-6-[3-[4-[3-(2,2-Dimethylpropyl)triazol-4-yl]phenyl]azetidine-1-carbonyl]-4,4a,5,7,8,8a-hexahydropyrido[4,3-b][1,4]oxazin-3-one]
20 | 0.7 nM | Cc1ccc(C)c(Oc2ccc(C3CN(C(=O)N4CC[C@@H]5OCC(=O)N[C@@H]5C4)C3)cc2)n1 [Example 30, (4aR,8aS)-6-[3-[4-[(3,6-Dimethyl-2-pyridyl)oxy]phenyl]azetidine-1-carbonyl]-4,4a,5,7,8,8a-hexahydropyrido[4,3-b][1,4]oxazin-3-one]
21 | 2.4 nM | CC(C)(C)Cc1nc(-c2ccc(C3CN(C(=O)N4CC[C@@H]5OCC(=O)N[C@@H]5C4)C3)cc2)no1 [Example 37, (4aR,8aS)-6-[3-[4-[5-(2,2-Dimethylpropyl)-1,2,4-oxadiazol-3-yl]phenyl]azetidine-1-carbonyl]-4,4a,5,7,8,8a-hexahydropyrido[4,3-b][1,4]oxazin-3-one]
22 | 3.9 nM | Cc1cccc(Oc2ccc(C3CN(C(=O)N4CC[C@@H]5OCC(=O)N[C@@H]5C4)C3)cc2)n1 [Example 26, (+)-(4aR,8aS)-6-[3-[4-[(6-Methyl-2-pyridyl)oxy]phenyl]azetidine-1-carbonyl]-4,4a,5,7,8,8a-hexahydropyrido[4,3-b][1,4]oxazin-3-one]
23 | 2.5 nM | Cc1ncccc1Oc1ccc(C2CN(C(=O)N3CC[C@@H]4OCC(=O)N[C@@H]4C3)C2)cc1 [Example 4, (4aR,8aS)-6-[3-[4-[(2-Methyl-3-pyridyl)oxy]phenyl]azetidine-1-carbonyl]-4,4a,5,7,8,8a-hexahydropyrido[4,3-b][1,4]oxazin-3-one]
24 | 0.11 nM | O=C1CO[C@H]2CCN(C(=O)N3CC(c4ccc(Oc5cccc(F)c5)cc4)C3)C[C@H]2N1 [Example 15, (+)-(4aR,8aS)-6-[3-[4-(3-Fluorophenoxy)phenyl]azetidine-1-carbonyl]-4,4a,5,7,8,8a-hexahydropyrido[4,3-b][1,4]oxazin-3-one]
